Experimental data taken from ChEMBL document CHEMBL4138175, “Newly designed organotin(IV) carboxylates with peptide linkage: Synthesis, structural elucidation, physicochemical characterizations and pharmacological investigations” (Eur J Med Chem, 2018).
Activity calls are given as the source filed them. The rule behind the calls is not given here.

What was measured:
[1] = test system: Staphylococcus epidermidis; assay: Antibacterial activity against Staphylococcus epidermidis assessed as zone of inhibition after 24 to 48 hrs by well diffusion method; type: functional
Pseudomonas aeruginosa [2] = assay: Antibacterial activity against Pseudomonas aeruginosa assessed as zone of inhibition after 24 to 48 hrs by well diffusion method; type: functional
Escherichia coli [3] = assay: Antibacterial activity against Escherichia coli assessed as zone of inhibition after 24 to 48 hrs by well diffusion method; type: functional
Staphylococcus aureus [4] = assay: Antibacterial activity against Staphylococcus aureus assessed as zone of inhibition after 24 to 48 hrs by well diffusion method; type: functional
Klebsiella pneumoniae [5] = assay: Antibacterial activity against Klebsiella pneumoniae assessed as zone of inhibition after 24 to 48 hrs by well diffusion method; type: functional
Serratia marcescens [6] = assay: Antibacterial activity against Serratia marcescens assessed as zone of inhibition after 24 to 48 hrs by well diffusion method; type: functional
Streptococcus pyogenes = assay: Antibacterial activity against Streptococcus pyogenes assessed as zone of inhibition after 24 to 48 hrs by well diffusion method; type: functional
Serratia marcescens [7] = assay: Antibacterial activity against Serratia marcescens assessed as zone of inhibition by measuring activity index after 24 to 48 hrs by well diffusion method relative to penicillin G; type: functional
Leishmania major [8] = assay: Antileishmanial activity against Leishmania major promastigotes at 1 uM after 72 hrs by MTT assay relative to control; type: functional
Escherichia coli [9] = assay: Antibacterial activity against Escherichia coli assessed as zone of inhibition by measuring activity index after 24 to 48 hrs by well diffusion method relative to tetracycline; type: functional
Leishmania major [10] = assay: Antileishmanial activity against Leishmania major promastigotes at 100 uM after 72 hrs by MTT assay relative to control; type: functional
Leishmania major [11] = assay: Antileishmanial activity against Leishmania major promastigotes at 10 uM after 72 hrs by MTT assay relative to control; type: functional
Klebsiella pneumoniae [12] = assay: Antibacterial activity against Klebsiella pneumoniae assessed as zone of inhibition by measuring activity index after 24 to 48 hrs by well diffusion method relative to amoxicillin; type: functional, organism-based
NCI-H157 [13] = assay: Cytotoxicity against human NCI-H157 cells after 48 hrs by sulforhodamine B assay; type: functional, cell-based
Klebsiella pneumoniae [14] = assay: Antibacterial activity against Klebsiella pneumoniae assessed as zone of inhibition by measuring activity index after 24 to 48 hrs by well diffusion method relative to tetracycline; type: functional, organism-based
Leishmania major [15] = assay: Antileishmanial activity against Leishmania major promastigotes at 0.1 uM after 72 hrs by MTT assay relative to control; type: functional
[16] = test system: Staphylococcus epidermidis; assay: Antibacterial activity against Staphylococcus epidermidis assessed as zone of inhibition by measuring activity index after 24 to 48 hrs by well diffusion method relative to tetracycline; type: functional, organism-based
Klebsiella pneumoniae [17] = assay: Antibacterial activity against Klebsiella pneumoniae assessed as zone of inhibition by measuring activity index after 24 to 48 hrs by well diffusion method relative to ampicillin; type: functional, organism-based
Pseudomonas aeruginosa [18] = assay: Antibacterial activity against Pseudomonas aeruginosa assessed as zone of inhibition by measuring activity index after 24 to 48 hrs by well diffusion method relative to amoxicillin; type: functional, organism-based
NCI-H157 [19] = assay: Cytotoxicity against human NCI-H157 cells at 1 uM after 48 hrs by sulforhodamine B assay; type: functional
Serratia marcescens [20] = assay: Antibacterial activity against Serratia marcescens assessed as zone of inhibition by measuring activity index after 24 to 48 hrs by well diffusion method relative to ampicillin; type: functional
NCI-H157 [21] = assay: Cytotoxicity against human NCI-H157 cells at 0.1 uM after 48 hrs by sulforhodamine B assay; type: functional
Pseudomonas aeruginosa [22] = assay: Antibacterial activity against Pseudomonas aeruginosa assessed as zone of inhibition by measuring activity index after 24 to 48 hrs by well diffusion method relative to tetracycline; type: functional, organism-based
Serratia marcescens [23] = assay: Antibacterial activity against Serratia marcescens assessed as zone of inhibition by measuring activity index after 24 to 48 hrs by well diffusion method relative to amoxicillin; type: functional
[24] = test system: Staphylococcus epidermidis; assay: Antibacterial activity against Staphylococcus epidermidis assessed as zone of inhibition by measuring activity index after 24 to 48 hrs by well diffusion method relative to amoxicillin; type: functional, organism-based
Pseudomonas aeruginosa [25] = assay: Antibacterial activity against Pseudomonas aeruginosa assessed as zone of inhibition by measuring activity index after 24 to 48 hrs by well diffusion method relative to penicillin G; type: functional, organism-based
NCI-H157 [26] = assay: Cytotoxicity against human NCI-H157 cells at 100 uM after 48 hrs by sulforhodamine B assay; type: functional
NCI-H157 [27] = assay: Cytotoxicity against human NCI-H157 cells at 10 uM after 48 hrs by sulforhodamine B assay; type: functional
DNA [28] = assay: Binding affinity to single-stranded DNA (unknown origin) after 10 mins by UV-visible spectrometric method; type: nucleic-acid assay
Staphylococcus aureus [29] = assay: Antibacterial activity against Staphylococcus aureus assessed as zone of inhibition by measuring activity index after 24 to 48 hrs by well diffusion method relative to penicillin G; type: functional, organism-based
DNA [30] = assay: Binding affinity to single-stranded DNA (unknown origin) assessed as red shift up to 72 uM after 10 mins by UV-visible spectrometric method; type: nucleic-acid assay
Klebsiella pneumoniae [31] = assay: Antibacterial activity against Klebsiella pneumoniae assessed as zone of inhibition by measuring activity index after 24 to 48 hrs by well diffusion method relative to penicillin G; type: functional, organism-based
Staphylococcus aureus [32] = assay: Antibacterial activity against Staphylococcus aureus assessed as zone of inhibition by measuring activity index after 24 to 48 hrs by well diffusion method relative to tetracycline; type: functional, organism-based
Staphylococcus aureus [33] = assay: Antibacterial activity against Staphylococcus aureus assessed as zone of inhibition by measuring activity index after 24 to 48 hrs by well diffusion method relative to amoxicillin; type: functional, organism-based
Staphylococcus aureus [34] = assay: Antibacterial activity against Staphylococcus aureus assessed as zone of inhibition by measuring activity index after 24 to 48 hrs by well diffusion method relative to ampicillin; type: functional, organism-based
Pseudomonas aeruginosa [35] = assay: Antibacterial activity against Pseudomonas aeruginosa assessed as zone of inhibition by measuring activity index after 24 to 48 hrs by well diffusion method relative to ampicillin; type: functional, organism-based

Compound	inhibition zone (IZ) [1] [mm]	inhibition zone (IZ) (Pseudomonas aeruginosa [2])	inhibition zone (IZ) (Escherichia coli [3]) [mm]	inhibition zone (IZ) (Staphylococcus aureus [4])	inhibition zone (IZ) (Klebsiella pneumoniae [5])	inhibition zone (IZ) (Serratia marcescens [6]) [mm]	inhibition zone (IZ) (Streptococcus pyogenes) [mm]	Activity index (Serratia marcescens [7])	Activity (Leishmania major [8]) [%]	Activity index (Escherichia coli [9])	Activity (Leishmania major [10]) [%]	Activity (Leishmania major [11]) [%]	Activity (NCI-H157 [13])	Activity (Leishmania major [15]) [%]	Activity index [16]	Activity (NCI-H157 [19]) [%]	Activity index (Serratia marcescens [20])	Activity (NCI-H157 [21]) [%]	Activity index (Serratia marcescens [23])	Activity index [24]	also measured
CC1(C)S[C@@H]2[C@H](NC(=O)Cc3ccccc3)C(=O)N2[C@H]1C(=O)O [PENICILLIN G]	0	6 mm	0	0 mm	0 mm	8	0														
Triphenylstannyl 2-(4-methoxy-2-nitrophenylcarbamoyl)benzoate	19	22.7 mm	11	4.66 mm	20.2 mm	4.66	11.7	0.58	53.6	5.5	64.3	59.4	Dose-dependent effect	50.7	1.9	55.7	0.58	52.3	0.78	9.5	Activity index (Klebsiella pneumoniae [12]): 3.37; Activity index (Klebsiella pneumoniae [14]): 1.44; Activity index (Klebsiella pneumoniae [17]): 3.37; Activity index (Pseudomonas aeruginosa [18]): 3.78; Activity index (Pseudomonas aeruginosa [22]): 3.78; Activity index (Pseudomonas aeruginosa [25]): 3.78; Activity (NCI-H157 [26]): 61.7%; Activity (NCI-H157 [27]): 58.4%
Dibenzylstannanediyl bis 2-(4-methoxy-2-nitrophenylcarbamoyl)benzoate	11	14.3 mm	9	10.7 mm	15 mm	7.66	10.7	0.96	62.5	4.5	72.4	66.3	Dose-dependent effect	60.9	1.1	67.4	0.96	62.7	1.28	5.5	Activity index (Klebsiella pneumoniae [12]): 2.5; Activity index (Klebsiella pneumoniae [14]): 1.07; Activity index (Klebsiella pneumoniae [17]): 2.5; Activity index (Pseudomonas aeruginosa [18]): 2.39; Activity index (Pseudomonas aeruginosa [22]): 2.39; Activity index (Pseudomonas aeruginosa [25]): 2.39; Activity (NCI-H157 [26]): 74.5%; Activity (NCI-H157 [27]): 71.3%
CN(C)[C@@H]1C(O)=C(C(N)=O)C(=O)[C@@]2(O)C(O)=C3C(=O)c4c(O)cccc4[C@@](C)(O)[C@H]3C[C@@H]12 [TETRACYCLINE]	10	6 mm	2	0 mm	14 mm	0	0														
(2,9-Dimethyl-1,10-Phenanthroline) trimethylstannyl 2-(4-methoxy-2-nitrophenylcarbamo-yl)benzoate	16	23 mm	1.53	inactive	inactive	15.7	5	1.96	56.7	0.77	62.1	59.5	Dose-dependent effect	52.1	1.6	48.6	1.96	45.5	2.61	8	K (DNA [28]): 2 ×10⁴ /M; Activity_index (Staphylococcus aureus [29]): inactive; Activity (DNA [30]): < 3 nm; Activity_index (Klebsiella pneumoniae [31]): inactive; Activity index (Pseudomonas aeruginosa [18]): 3.84; Activity_index (Staphylococcus aureus [32]): inactive; Activity_index (Staphylococcus aureus [33]): inactive; Activity index (Pseudomonas aeruginosa [22]): 3.84; Activity index (Pseudomonas aeruginosa [25]): 3.84; Activity (NCI-H157 [26]): 52.8%; Activity (NCI-H157 [27]): 50.3%; Activity_index (Staphylococcus aureus [34]): inactive
Dibutylstannanediyl bis 2-(4-methoxy-2-nitrophenylcarbamoyl)benzoate	15	inactive	19.3	24 mm	26 mm	18.3	6	2.29	49.6	9.67	54.2	50.6	Dose-dependent effect	47.6	1.5	47.4	2.29	43.9	3.05	7.5	Activity index (Klebsiella pneumoniae [12]): 4.34; Activity index (Klebsiella pneumoniae [14]): 1.88; Activity index (Klebsiella pneumoniae [17]): 4.34; Activity_index (Pseudomonas aeruginosa [35]): inactive; Activity (NCI-H157 [26]): 55.5%; Activity (NCI-H157 [27]): 52.6%
CC1(C)S[C@@H]2[C@H](NC(=O)[C@H](N)c3ccc(O)cc3)C(=O)N2[C@H]1C(=O)O [AMOXICILLIN]	2	6 mm	0	0 mm	6 mm	6	0														
CC1(C)S[C@@H]2[C@H](NC(=O)[C@H](N)c3ccccc3)C(=O)N2[C@H]1C(=O)O [AMPICILLIN]	0	0 mm	0	0 mm	6 mm	8	0														
C[C@@H]1[C@H](O)[C@@H](C)/C=C/C=C/C=C/C=C/C=C/C=C/C=C/[C@H](O[C@@H]2O[C@H](C)[C@@H](O)[C@H](N)[C@@H]2O)C[C@@H]2O[C@](O)(C[C@@H](O)C[C@@H](O)[C@H](O)CC[C@@H](O)C[C@@H](O)CC(=O)O[C@H]1C)C[C@H](O)[C@H]2C(=O)O [AMPHOTERICIN B]									74.8		79.8	76.3		69.9							
